biological target: KRAS G12C (Homo sapiens (Human), UniProt P01116, C118A/G12C); assay: 2 h coupled exchange assay; type: biochemical; conditions: Avg 2 h Coupled exchange IC50, 2 h compound pre-incubation, SOS-mediated nucleotide exchange
Experimental: The term “2 h coupled exchange assay” or “20 h coupled exchange assay” as used herein refers to the assay described in the Section entitled “BIOLOGICAL EVALUATION.”

KRAS G12C, sequence (P01116 other isoform, or with tags, fused parts or gaps G12C/C118A): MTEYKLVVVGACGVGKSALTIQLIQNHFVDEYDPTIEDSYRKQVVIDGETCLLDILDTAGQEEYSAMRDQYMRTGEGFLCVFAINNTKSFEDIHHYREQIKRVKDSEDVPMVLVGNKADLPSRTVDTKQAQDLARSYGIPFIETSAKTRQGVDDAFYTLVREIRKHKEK

Compound | IC50
C=CC(=O)N1CC2(CCN(c3nc4c(c(-c5c(C)ccc6[nH]ncc56)c3Cl)COC(C)(C)C4)C2)C1 (single isomer, unassigned) [Example 2-84, (P)-1-(6-(3-chloro-7,7-dimethyl-4-(5-methyl-1H-indazol-4-yl)-7,8-dihydro-5H-pyrano[4,3-b]pyridin-2-yl)-2,6-diazaspiro[3.4]octan-2-yl)-2-propen-1-one] | 808 nM
C=CC(=O)N1CC2(CCN(c3nc4c(c(-c5c(C)ccc6[nH]ncc56)c3Cl)COC(C)(C)C4)C2)C1 (single isomer, unassigned) [Example 2-85, (M)-1-(6-(3-chloro-7,7-dimethyl-4-(5-methyl-1H-indazol-4-yl)-7,8-dihydro-5H-pyrano[4,3-b]pyridin-2-yl)-2,6-diazaspiro[3.4]octan-2-yl)-2-propen-1-one] | 12600 nM
C=CC(=O)N1CC2(CCN(c3nc4c(c(-c5c(C)ccc6cnn(C)c56)c3Cl)COC(C)(C)C4)C2)C1 (single isomer, unassigned) [Example 2-87, (M)-1-(6-(3-chloro-4-(1,6-dimethyl-1H-indazol-7-yl)-7,7-dimethyl-7,8-dihydro-5H-pyrano[4,3-b]pyridin-2-yl)-2,6-diazaspiro[3.4]octan-2-yl)-2-propen-1-one] | 115 nM
C=CC(=O)N1CC2(CCN(c3nc4c(c(-c5c(C)ccc6cnn(C)c56)c3Cl)COC(C)(C)C4)C2)C1 (single isomer, unassigned) [Example 2-88, (P)-1-(6-(3-chloro-4-(1,6-dimethyl-1H-indazol-7-yl)-7,7-dimethyl-7,8-dihydro-5H-pyrano[4,3-b]pyridin-2-yl)-2,6-diazaspiro[3.4]octan-2-yl)-2-propen-1-one] | 4730 nM
C=CC(=O)N1CC2(CCN(c3nc4c(c(-c5c(C)c(Cl)cc6cnn(C)c56)c3Cl)COC(C)(C)C4)C2)C1 (single isomer, unassigned) [Example 2-90, (M)-1-(6-(3-chloro-4-(5-chloro-1,6-dimethyl-1H-indazol-7-yl)-7,7-dimethyl-7,8-dihydro-5H-pyrano[4,3-b]pyridin-2-yl)-2,6-diazaspiro[3.4]octan-2-yl)-2-propen-1-one] | 5 nM
C=CC(=O)N1CC2(CCN(c3nc4c(c(-c5c(C)c(Cl)cc6cnn(C)c56)c3Cl)COC(C)(C)C4)C2)C1 (single isomer, unassigned) [Example 2-91, (P)-1-(6-(3-chloro-4-(5-chloro-1,6-dimethyl-1H-indazol-7-yl)-7,7-dimethyl-7,8-dihydro-5H-pyrano[4,3-b]pyridin-2-yl)-2,6-diazaspiro[3.4]octan-2-yl)-2-propen-1-one] | 2890 nM
C=CC(=O)N1CC2(CCN(c3cc4c(c(-c5c(C)ccc6[nH]ncc56)c3C#N)COCC4)C2)C1 (single isomer, unassigned) [Example 2-99, (M)-8-(5-methyl-1H-indazol-4-yl)-6-(2-(2-propenoyl)-2,6-diazaspiro[3.4]octan-6-yl)-3,4-dihydro-1H-2-benzopyran-7-carbonitrile] | 4390 nM
C=CC(=O)N1CC2(CCN(c3nc4c(c(-c5c(C)c(Cl)cc6[nH]ncc56)c3Cl)COC(C)(C)C4)C2)C1 (single isomer, unassigned) [Example 2-108, (M)-1-(6-(3-chloro-4-(6-chloro-5-methyl-1H-indazol-4-yl)-7,7-dimethyl-7,8-dihydro-5H-pyrano[4,3-b]pyridin-2-yl)-2,6-diazaspiro[3.4]octan-2-yl)-2-propen-1-one] | 14100 nM
C=CC(=O)N1CC2(CCN(c3nc4c(c(-c5cc(Cl)cc6ccn(C)c56)c3C#N)COC(C)(C)C4)C2)C1 (single isomer, unassigned) [Example 12-9, (P)-4-(5-chloro-1-methyl-1H-indol-7-yl)-7,7-dimethyl-2-(2-(2-propenoyl)-2,6-diazaspiro[3.4]octan-6-yl)-7,8-dihydro-5H-pyrano[4,3-b]pyridine-3-carbonitrile] | 443 nM
C=CC(=O)N1CC2(CCN(c3nc4c(c(-c5cc(Cl)cc6ccn(C)c56)c3C#N)COC(C)(C)C4)C2)C1 (single isomer, unassigned) [Example 12-10, (M)-4-(5-chloro-1-methyl-1H-indol-7-yl)-7,7-dimethyl-2-(2-(2-propenoyl)-2,6-diazaspiro[3.4]octan-6-yl)-7,8-dihydro-5H-pyrano[4,3-b]pyridine-3-carbonitrile] | 7420 nM
C=CC(=O)N1CC2(CCN(c3nc4c(c(-c5c(C)c(Cl)cc6cnn(C)c56)c3C)CCN(C(C)C)C4)C2)C1 (single isomer, unassigned) [Example 12-23, (P)-1-(6-(4-(5-chloro-1,6-dimethyl-1H-indazol-7-yl)-3-methyl-7-(2-propanyl)-5,6,7,8-tetrahydro-1,7-naphthyridin-2-yl)-2,6-diazaspiro[3.4]octan-2-yl)-2-propen-1-one] | 18700 nM
C=CC(=O)N1CC2(CCN(c3nc4c(c(-c5c(C)c(Cl)cc6cnn(C)c56)c3C)CCN(C(C)C)C4)C2)C1 (single isomer, unassigned) [Example 12-24, (M)-1-(6-(4-(5-chloro-1,6-dimethyl-1H-indazol-7-yl)-3-methyl-7-(2-propanyl)-5,6,7,8-tetrahydro-1,7-naphthyridin-2-yl)-2,6-diazaspiro[3.4]octan-2-yl)-2-propen-1-one] | 50 nM
C=CC(=O)N1CC2(CCN(c3nc4c(c(-c5c(F)cccc5[C@H](C)O)c3C#N)C[C@H]3C[C@@H]4C3(C)C)C2)C1 (single isomer, unassigned) [Example 12-36] | 441 nM
C=CC(=O)N1CC2(CCN(c3nc4c(c(-c5c(F)cccc5[C@@H](C)O)c3C#N)C[C@H]3C[C@@H]4C3(C)C)C2)C1 (single isomer, unassigned) [Example 12-37] | 1440 nM
C=CC(=O)N1CC2(CCN(c3nc4c(c(-c5cc(O)cc6nccnc56)c3C#N)C[C@H]3C[C@@H]4C3(C)C)C2)C1 (single isomer, unassigned) [Example 12-39] | 3900 nM
C=CC(=O)N1CC2(CCN(c3nc4c(c(-c5cc(O)cc(Cl)c5C)c3C)COC(C)(C)C4)C2)C1 (single isomer, unassigned) [Example 12-44, (P)-1-(6-(4-(3-chloro-5-hydroxy-2-methylphenyl)-3,7,7-trimethyl-7,8-dihydro-5H-pyrano[4,3-b]pyridin-2-yl)-2,6-diazaspiro[3.4]octan-2-yl)prop-2-en-1-one] | 11000 nM

Further lines, results first:

IC50 | Compound
19900 nM | C=CC(=O)N1CC2(CCN(c3nc4c(c(-c5c(C)ccc6cnn(C)c56)c3C#N)CC(C)(C)C4)C2)C1 (single isomer, unassigned) [Example 13-17, (M)-4-(1,6-dimethyl-1H-indazol-7-yl)-6,6-dimethyl-2-(2-(2-propenoyl)-2,6-diazaspiro[3.4]octan-6-yl)-6,7-dihydro-5H-cyclopenta[b]pyridine-3-carbonitrile]
1800 nM | C=CC(=O)N1CC2(CCN(c3nc4c(c(-c5ccccc5Cl)c3C#N)CC(C)(C)C4)C2)C1 (single isomer, unassigned) [Example 13-24, (M)-4-(2-chlorophenyl)-6,6-dimethyl-2-(2-(2-propenoyl)-2,6-diazaspiro[3.4]octan-6-yl)-6,7-dihydro-5H-cyclopenta[b]pyridine-3-carbonitrile]
337 nM | C=CC(=O)N1CC2(CCN(c3nc4c(c(-c5ccccc5Cl)c3C#N)CC(C)(C)C4)C2)C1 (single isomer, unassigned) [Example 13-25, (P)-4-(2-chlorophenyl)-6,6-dimethyl-2-(2-(2-propenoyl)-2,6-diazaspiro[3.4]octan-6-yl)-6,7-dihydro-5H-cyclopenta[b]pyridine-3-carbonitrile]
266 nM | C=CC(=O)N1CC2(CCN(c3nc4c(c(-c5ccnn5C)c3C#N)CC[C@H](c3ccnn3C)C4)C2)C1 (single isomer, unassigned) [Example 13-28]
217 nM | C=CC(=O)N1CC2(CCN(c3nc4c(c(-c5ccnn5C)c3C#N)CC[C@@H](c3ccnn3C)C4)C2)C1 (single isomer, unassigned) [Example 13-29]
652 nM | C=CC(=O)N1CC2(CCN(c3nc4c(c(-c5c(C)ccc6cnn(C)c56)c3C#N)C[C@H]3C[C@@H]4C3)[C@H]2C)C1 (single isomer, unassigned) [Example 13-31]
64900 nM | C=CC(=O)N1CC2(CCN(c3nc4c(c(-c5c(C)ccc6cnn(C)c56)c3C#N)C[C@H]3C[C@@H]4C3)[C@H]2C)C1 (single isomer, unassigned) [Example 13-32]
991 nM | C=CC(=O)N1CC2(CCN(c3nc4c(c(-c5c(O)ccc6ccccc56)c3C#N)C[C@H]3C[C@@H]4C3)C2)C1 (single isomer, unassigned) [Example 13-36]
31700 nM | C=CC(=O)N1CC2(CCN(c3nc4c(c(-c5c(O)ccc6ccccc56)c3C#N)C[C@H]3C[C@@H]4C3)C2)C1 (single isomer, unassigned) [Example 13-37]
639 nM | C=CC(=O)N1CC2(CCN(c3nc4c(c(-c5c(C)cccc5O)c3C#N)C[C@H]3C[C@@H]4C3)C2)C1 (single isomer, unassigned) [Example 13-39]
34100 nM | C=CC(=O)N1CC2(CCN(c3nc4c(c(-c5c(C)cccc5O)c3C#N)C[C@H]3C[C@@H]4C3)C2)C1 (single isomer, unassigned) [Example 13-40]
23300 nM | C=CC(=O)N1CC2(CCN(c3nc4c(c(-c5cc(O)cc6ccccc56)c3C#N)COC(C)(C)C4)C2)C1 (single isomer, unassigned) [Example 13-42, (M)-4-(3-hydroxy-1-naphthalenyl)-7,7-dimethyl-2-(2-(2-propenoyl)-2,6-diazaspiro[3.4]octan-6-yl)-7,8-dihydro-5H-pyrano[4,3-b]pyridine-3-carbonitrile]
141000 nM | C=CC(=O)N1CC2(CCN(c3nc4c(c(-c5c(C)ccc6cnn(C)c56)c3C#N)COC4(C)C)C2)C1 (single isomer, unassigned) [Example 13-56, (P)-4-(1,6-dimethyl-1H-indazol-7-yl)-,7,7-dimethyl-2-(2-(2-propenoyl)-2,6-diazaspiro[3.4]octan-6-yl)-5,7-dihydrofuro[3,4-b]pyridine-3-carbonitrile]
